Reference: patent US9681658B2, “Penetrants for agrochemical formulations” (CRODA INTERNATIONAL PLC, priority 2012, dated 2017)

Tested on: Isolated cuticles from apple leaves (Malus domestica cv. 'Golden Delicious')
Assay: Leaf penetration (Franz cell diffusion of Imidacloprid through isolated cuticles)
Format: in vitro ADME
Conditions: active alone without penetrant
Description: The following test method was used to assess leaf penetration properties of the synthesised ethoxylated polyol alkoxylates P1 to P18.
Franz cells were set up containing: • Receptor solution: 10 mM sodium phosphate buffer pH 6.0 containing 0.1 mM sodium azide • Donor solution: unformulated pesticide containing 0.5 g/l of Imidacloprid (N-[1-[(6-Chloro-3-pyridyl)methyl]-4,5-dihydroimidazol-2-yl]nitramide) and 2.5 g/l of penetrant, in 5 mM lactic acid (pre-buffered with KOH), preserved with 0.5 mM sodium azide, (+/−0.25% w/v), i.e. 2.5 g/l donor).
The Franz cell experiments were used for diffusion experiments. Isolated cuticles from apple leaves (Malus domestica cv. ‘Golden Delicious’) were prepared based on the method detailed in US 2009/0247597. The donor compartment was removed to aid deposit formation. Experiments were performed at a controlled temperature of 20° C., and a controlled relative humidity of 58%. A calibration was carried out (0-100% penetration) obtaining the concentration of Imidacloprid in the receiver solution removed from the Franz Cell.
HPLC-UV was used to assay imidacloprid concentration using an Agilent 1260 Quaternary LC system. Each penetrant was tested for leaf penetration properties, with a total of 18 Franz cells used for percentage penetration determination. A calibration was carried out before each set of samples was analysed. […]

Structure (SMILES): O=[N+]([O-])NC1=NCCN1Cc1ccc(Cl)nc1 [Imidacloprid, N-[1-[(6-Chloro-3-pyridyl)methyl]-4,5-dihydroimidazol-2-yl]nitramide]
- % penetration after 72 hours: 1.7%
